Experimental data taken from patent US20230085307A1, “PYRIDAZINONE COMPOUND AND HERBICIDE” (NISSAN CHEMICAL CORPORATION, priority 2019, published 2023).

How the values were obtained:
Chinese sprangletop = experiment: Test Example 3: herbicidal effect by foliage application, Wagner pot (Table 18, symbol D); format: in vivo, chinese sprangletop (Leptochloa chinensis); details: 320 g/ha
Summary of the method: (§1)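 Plants were sown in alluvial soil held under 0.1–0.5 cm standing water and grown 14 days in a greenhouse at 25–30 °C. An emulsifiable formulation, water-diluted to the set dose, was then sprayed onto the foliage, and effects were scored three weeks later using previously defined criteria.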

barnyard grass [1] = experiment: Test Example 5: herbicidal effect by foliage application, plastic box (Table 20, symbol H); format: in vivo, barnyard grass (Echinochloa crus-galli)
Summary of the method: (§2)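 Foliar spray test: emulsion formulation diluted in water to a set application rate, sprayed onto 14-day-old plants raised in diluvial soil at 25° C to 30° C under glass. Both herbicidal effect and crop effect rated visually three weeks later.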

persian speedwell [2] = experiment: Test Example 5: herbicidal effect by foliage application, plastic box (Table 20, symbol R); format: in vivo, Persian speedwell (Veronica persica)
Summary of the method: as §2

green foxtail [3] = experiment: Test Example 5: herbicidal effect by foliage application, plastic box (Table 20, symbol G); format: in vivo, green foxtail (Setaria viridis)
Summary of the method: as §2

blackgrass [4] = experiment: Test Example 4: herbicidal effect by soil treatment (Table 19, symbol J); format: in vivo, blackgrass (Alopecurus myosuroides)
Summary of the method: (§3)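 Herbicidal effect was rated 3 weeks after treatment, using the scoring criteria of an earlier test. The compound, formulated as an emulsion and diluted in water to a set herbicide amount, had been sprayed uniformly on soil over freshly sown seeds. Growth took place in a greenhouse at 25° C. to 30° C.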

southern crabgrass [5] = experiment: Test Example 4: herbicidal effect by soil treatment (Table 19, symbol F); format: in vivo, southern crabgrass (Digitaria ciliaris)
Summary of the method: as §3

southern crabgrass [6] = experiment: Test Example 5: herbicidal effect by foliage application, plastic box (Table 20, symbol F); format: in vivo, southern crabgrass (Digitaria ciliaris)
Summary of the method: as §2

windgrass [7] = experiment: Test Example 5: herbicidal effect by foliage application, plastic box (Table 20, symbol L); format: in vivo, windgrass (Apera spica-venti); details: foliage application, AAH 320 g/ha, three weeks after application
Summary of the method: as §2

green foxtail [8] = experiment: Test Example 4: herbicidal effect by soil treatment (Table 19, symbol G); format: in vivo, green foxtail (Setaria viridis)
Summary of the method: as §3

redroot pigweed [9] = experiment: Test Example 5: herbicidal effect by foliage application, plastic box (Table 20, symbol N); format: in vivo, redroot pigweed (Amaranthus retroflexus)
Summary of the method: as §2

windgrass [10] = experiment: Test Example 4: herbicidal effect by soil treatment (Table 19, symbol L); format: in vivo, windgrass (Apera spica-venti)
Summary of the method: as §3

velvetleaf [11] = experiment: Test Example 4: herbicidal effect by soil treatment (Table 19, symbol M); format: in vivo, velvetleaf (Abutilon theophrasti)
Summary of the method: as §3

Italian ryegrass [12] = experiment: Test Example 4: herbicidal effect by soil treatment (Table 19, symbol K); format: in vivo, Italian ryegrass (Lolium multiflorum)
Summary of the method: as §3

barnyard grass [13] = experiment: Test Example 4: herbicidal effect by soil treatment (Table 19, symbol H); format: in vivo, barnyard grass (Echinochloa crus-galli)
Summary of the method: as §3

chickweed [14] = experiment: Test Example 4: herbicidal effect by soil treatment (Table 19, symbol P); format: in vivo, common chickweed (Stellaria media)
Summary of the method: as §3

chickweed [15] = experiment: Test Example 5: herbicidal effect by foliage application, plastic box (Table 20, symbol P); format: in vivo, common chickweed (Stellaria media)
Summary of the method: as §2

blackgrass [16] = experiment: Test Example 5: herbicidal effect by foliage application, plastic box (Table 20, symbol J); format: in vivo, blackgrass (Alopecurus myosuroides)
Summary of the method: as §2

false cleavers = experiment: Test Example 4: herbicidal effect by soil treatment (Table 19, symbol Q); format: in vivo, false cleavers (Galium spurium)
Summary of the method: as §3

wild oat [17] = experiment: Test Example 5: herbicidal effect by foliage application, plastic box (Table 20, symbol I); format: in vivo, wild oat (Avena fatua)
Summary of the method: as §2

barnyard grass [18] = experiment: Test Example 3: herbicidal effect by foliage application, Wagner pot (Table 18, symbol H); format: in vivo, barnyard grass (Echinochloa crus-galli); details: 320 g/ha
Summary of the method: as §1

velvetleaf [19] = experiment: Test Example 5: herbicidal effect by foliage application, plastic box (Table 20, symbol M); format: in vivo, velvetleaf (Abutilon theophrasti)
Summary of the method: as §2

lambsquarters [20] = experiment: Test Example 5: herbicidal effect by foliage application, plastic box (Table 20, symbol O); format: in vivo, lambsquarters (Chenopodium album)
Summary of the method: as §2

rice flat sedge = experiment: Test Example 3: herbicidal effect by foliage application, Wagner pot (Table 18, symbol E); format: in vivo, rice flat sedge (Cyperus iria); details: 320 g/ha
Summary of the method: as §1

Italian ryegrass [21] = experiment: Test Example 5: herbicidal effect by foliage application, plastic box (Table 20, symbol K); format: in vivo, Italian ryegrass (Lolium multiflorum)
Summary of the method: as §2

wild oat [22] = experiment: Test Example 4: herbicidal effect by soil treatment (Table 19, symbol I); format: in vivo, wild oat (Avena fatua)
Summary of the method: as §3

persian speedwell [23] = experiment: Test Example 4: herbicidal effect by soil treatment (Table 19, symbol R); format: in vivo, Persian speedwell (Veronica persica)
Summary of the method: as §3

lambsquarters [24] = experiment: Test Example 4: herbicidal effect by soil treatment (Table 19, symbol O); format: in vivo, lambsquarters (Chenopodium album)
Summary of the method: as §3

redroot pigweed [25] = experiment: Test Example 4: herbicidal effect by soil treatment (Table 19, symbol N); format: in vivo, redroot pigweed (Amaranthus retroflexus); details: amount of applied herbicide 320 g/ha
Summary of the method: as §3

[26] = foliage application, AAH 320 g/ha, three weeks after application
[27] = 320 g/ha, foliage application after 14-day growth, evaluated three weeks after application
[28] = amount of applied herbicide 320 g/ha

CCCC(=O)Oc1c(OC)nn(C)c(=O)c1-c1c(-c2ccc(F)c(F)c2)sc2ccccc12 [1-173]
herbicidal effect on D (Chinese sprangletop), rating 0-5 (Chinese sprangletop): 0 (Herbicidal rate of 5% or less (almost no effect)) | H: barnyard grass, herbicidal effect (barnyard grass [1]; [26]): 0 (Herbicidal rate of 5% or less (almost no effect)) | R: persian speedwell, herbicidal effect (persian speedwell [2]; [26]): 5 (Herbicidal rate of 90% or more (almost completely withered)) | G: green foxtail, herbicidal effect (green foxtail [3]; [26]): 3 (Herbicidal rate of 40% or more and less than 70%) | J: blackgrass, herbicidal effect rating (blackgrass [4]; AAH 320 g/ha): 0 (Herbicidal rate of 5% or less (almost no effect)) | F: southern crabgrass, herbicidal effect rating (southern crabgrass [5]; AAH 320 g/ha): 0 (Herbicidal rate of 5% or less (almost no effect)) | F: southern crabgrass, herbicidal effect (southern crabgrass [6]; [26]): 0 (Herbicidal rate of 5% or less (almost no effect)) | L: windgrass, herbicidal effect (windgrass [7]): 0 (Herbicidal rate of 5% or less (almost no effect)) | G: green foxtail, herbicidal effect rating (green foxtail [8]; AAH 320 g/ha): 5 (Herbicidal rate of 90% or more (almost completely withered)) | N: redroot pigweed, herbicidal effect (redroot pigweed [9]; [26]): 5 (Herbicidal rate of 90% or more (almost completely withered)) | L: windgrass, herbicidal effect rating (windgrass [10]; AAH 320 g/ha): 0 (Herbicidal rate of 5% or less (almost no effect)) | M: velvetleaf, herbicidal effect rating (velvetleaf [11]; AAH 320 g/ha): 4 (Herbicidal rate of 70% or more and less than 90%) | K: Italian ryegrass, herbicidal effect rating (Italian ryegrass [12]; AAH 320 g/ha): 2 (Herbicidal rate of 20% or more and less than 40%) | H: barnyard grass, herbicidal effect rating (barnyard grass [13]; AAH 320 g/ha): 0 (Herbicidal rate of 5% or less (almost no effect)) | P: chickweed, herbicidal effect rating (chickweed [14]; AAH 320 g/ha): 5 (Herbicidal rate of 90% or more (almost completely withered)) | P: chickweed, herbicidal effect (chickweed [15]; [26]): 5 (Herbicidal rate of 90% or more (almost completely withered)) | J: blackgrass, herbicidal effect (blackgrass [16]; [26]): 1 (Herbicidal rate of 5% or more and less than 20%) | Q: false cleavers, herbicidal effect rating (false cleavers; AAH 320 g/ha): 3 (Herbicidal rate of 40% or more and less than 70%) | I: wild oat, herbicidal effect (wild oat [17]; [26]): 1 (Herbicidal rate of 5% or more and less than 20%) | herbicidal effect on H (barnyard grass), rating 0-5 (barnyard grass [18]): 1 (Herbicidal rate of 5% or more and less than 20%) | M: velvetleaf, herbicidal effect (velvetleaf [19]; [26]): 5 (Herbicidal rate of 90% or more (almost completely withered)) | O: lambsquarters, herbicidal effect (lambsquarters [20]; [26]): 5 (Herbicidal rate of 90% or more (almost completely withered)) | herbicidal effect on E (rice flat sedge), rating 0-5 (rice flat sedge): 5 (Herbicidal rate of 90% or more (almost completely withered)) | K: Italian ryegrass, herbicidal effect (Italian ryegrass [21]; [26]): 4 (Herbicidal rate of 70% or more and less than 90%) | I: wild oat, herbicidal effect rating (wild oat [22]; AAH 320 g/ha): 0 (Herbicidal rate of 5% or less (almost no effect)) | R: persian speedwell, herbicidal effect rating (persian speedwell [23]; AAH 320 g/ha): 5 (Herbicidal rate of 90% or more (almost completely withered)) | O: lambsquarters, herbicidal effect rating (lambsquarters [24]; AAH 320 g/ha): 5 (Herbicidal rate of 90% or more (almost completely withered))

COc1ccc(-c2sc3c(F)cccc3c2-c2c(O)c(C)nn(C)c2=O)cc1 [4-005]
herbicidal effect on Chinese sprangletop (D) (Chinese sprangletop): 3 (Herbicidal rate of 40% or more and less than 70%) | herbicidal effect on H: barnyard grass (evaluation grade 0-5) (barnyard grass [1]; [27]): 3 (Herbicidal rate of 40% or more and less than 70%) | herbicidal effect on R: persian speedwell (evaluation grade 0-5) (persian speedwell [2]; [27]): 5 (Herbicidal rate of 90% or more (almost completely withered)) | herbicidal effect on G: green foxtail (evaluation grade 0-5) (green foxtail [3]; [27]): 5 (Herbicidal rate of 90% or more (almost completely withered)) | Herbicidal effect by soil treatment, J: blackgrass (blackgrass [4]; [28]): 0 (Herbicidal rate of 5% or less (almost no effect)) | Herbicidal effect by soil treatment, F: southern crabgrass (southern crabgrass [5]; [28]): 0 (Herbicidal rate of 5% or less (almost no effect)) | herbicidal effect on F: southern crabgrass (evaluation grade 0-5) (southern crabgrass [6]; [27]): 0 (Herbicidal rate of 5% or less (almost no effect)) | Herbicidal effect by soil treatment, G: green foxtail (green foxtail [8]; [28]): 5 (Herbicidal rate of 90% or more (almost completely withered)) | herbicidal effect on N: redroot pigweed (evaluation grade 0-5) (redroot pigweed [9]; [27]): 3 (Herbicidal rate of 40% or more and less than 70%) | Herbicidal effect by soil treatment, L: windgrass (windgrass [10]; [28]): 0 (Herbicidal rate of 5% or less (almost no effect)) | Herbicidal effect by soil treatment, M: velvetleaf (velvetleaf [11]; [28]): 0 (Herbicidal rate of 5% or less (almost no effect)) | Herbicidal effect by soil treatment, K: Italian ryegrass (Italian ryegrass [12]; [28]): 0 (Herbicidal rate of 5% or less (almost no effect)) | Herbicidal effect by soil treatment, H: barnyard grass (barnyard grass [13]; [28]): 4 (Herbicidal rate of 70% or more and less than 90%) | Herbicidal effect by soil treatment, N: redroot pigweed (redroot pigweed [25]): 0 (Herbicidal rate of 5% or less (almost no effect)) | Herbicidal effect by soil treatment, P: chickweed (chickweed [14]; [28]): 4 (Herbicidal rate of 70% or more and less than 90%) | herbicidal effect on P: chickweed (evaluation grade 0-5) (chickweed [15]; [27]): 5 (Herbicidal rate of 90% or more (almost completely withered)) | herbicidal effect on J: blackgrass (evaluation grade 0-5) (blackgrass [16]; [27]): 0 (Herbicidal rate of 5% or less (almost no effect)) | Herbicidal effect by soil treatment, Q: false cleavers (false cleavers; [28]): 0 (Herbicidal rate of 5% or less (almost no effect)) | herbicidal effect on I: wild oat (evaluation grade 0-5) (wild oat [17]; [27]): 0 (Herbicidal rate of 5% or less (almost no effect)) | herbicidal effect on barnyard grass (H) (barnyard grass [18]): 4 (Herbicidal rate of 70% or more and less than 90%) | herbicidal effect on M: velvetleaf (evaluation grade 0-5) (velvetleaf [19]; [27]): 3 (Herbicidal rate of 40% or more and less than 70%) | herbicidal effect on O: lambsquarters (evaluation grade 0-5) (lambsquarters [20]; [27]): 3 (Herbicidal rate of 40% or more and less than 70%) | herbicidal effect on rice flat sedge (E) (rice flat sedge): 5 (Herbicidal rate of 90% or more (almost completely withered)) | herbicidal effect on K: Italian ryegrass (evaluation grade 0-5) (Italian ryegrass [21]; [27]): 4 (Herbicidal rate of 70% or more and less than 90%) | Herbicidal effect by soil treatment, I: wild oat (wild oat [22]; [28]): 0 (Herbicidal rate of 5% or less (almost no effect)) | Herbicidal effect by soil treatment, R: persian speedwell (persian speedwell [23]; [28]): 5 (Herbicidal rate of 90% or more (almost completely withered)) | Herbicidal effect by soil treatment, O: lambsquarters (lambsquarters [24]; [28]): 4 (Herbicidal rate of 70% or more and less than 90%)
